We go through eight compounds from ChEMBL document CHEMBL1772945, “Bioactive compounds from the scale insect pathogenic fungus Conoideocrella tenuis BCC 18627” (J Nat Prod, 2011).

Each structure is given as a SMILES string. In brackets after ≈: the same amount, converted by molar mass. Where a name gives a salt, the structure may show the parent alone.

Test [1] has as its system Plasmodium falciparum. The experiment in a line: Antimalarial activity against multi-drug-resistant Plasmodium falciparum K1 by microculture radioisotope technique. It is filed as functional, organism-based.
For test [2], the system named is Mycobacterium tuberculosis. In words: Antitubercular activity against Mycobacterium tuberculosis H37Ra by green fluorescent protein microplate assay. Type of test: functional.
For test [3], the system named is Human alphaherpesvirus 1. In words: Antiviral activity against HSV-1 by green fluorescent protein microplate assay. Type of test: functional, organism-based.
In test [4] the test system is KB. The experiment in a line: Cytotoxicity against human KB cells after 45 hrs by resazurin microplate assay. Type of test: functional, cell-based.
In test [5] the test system is MCF7. The experiment in a line: Cytotoxicity against human MCF7 cells after 45 hrs by resazurin microplate assay. It is filed as functional, cell-based. The settings on record: MCF7, 45 h. For orientation: The colour change of resazurin is a common sign of viable cells or microbes.
Test [6] deals with NCI-H187. In words: Cytotoxicity against human NCI-H187 cells after 45 hrs by resazurin microplate assay. It is filed as functional, cell-based. The settings on record: NCI-H187, 45 h.
The test system of test [7] is Vero. The experiment in a line: Cytotoxicity against african green monkey Vero cells by green fluorescent protein microplate assay. Type of test: cell-based. The settings on record: Chlorocebus sabaeus.

Take `COc1cc(OC)c2c(O)c3c(c(-c4c(OC)cc(OC)c5c(O)c6c(cc45)[C@H](OC(C)=O)[C@H](C)OC6)c2c1)[C@H](OC(C)=O)[C@H](C)OC3`: the IC50 – broadly, the concentration that gives 50% inhibition – in test [1] is 15 µM; in test [3] it was > 75 µM; in test [4], 15 µM; in test [5] it was 37 µM; in test [6], 12 µM; in test [7] it was > 75 µM. The MIC (in general, the smallest concentration in the dilution series that meets the test's criterion for growth inhibition) in test [2] is > 75 µM.

Consider `CC(C)(O)[C@H]1CC[C@]2(C)[C@H]3CC[C@@H]4[C@@]5(C)CCCC(C)(C)[C@@H]5[C@H](O)[C@H](O)[C@@]4(C)[C@]3(C)CC[C@@H]12`, for which the IC50 is > 22 µM in test [1]; > 109 µM in test [3]; > 109 µM in test [4]; > 109 µM in test [5]; > 109 µM in test [6]; > 109 µM in test [7]. Also, the MIC in test [2] is > 109 µM.

With `Cc1c2ccncc2c(C)c2c1[nH]c1ccccc12` [ELLIPTECINE], the 50% inhibitory concentration (IC50) in test [7] came to 12 µM.

With `CC(C)(O)[C@H]1CC[C@]2(C)[C@H]3C[C@@H](O)[C@@H]4[C@@]5(C)CCCC(C)(C)[C@@H]5[C@H](O)C[C@@]4(C)[C@]3(C=O)CC[C@@H]12`, the IC50 is > 21 µM in test [1]; 21 µM in test [3]; 10 µM in test [4]; 28 µM in test [5]; 68 µM in test [6]; 69 µM in test [7]. Besides, the minimum inhibitory concentration (MIC) in test [2] was > 105 µM.

For the compound `Nc1nc2c(ncn2COCCO)c(=O)[nH]1` [ACYCLOVIR], in test [3], the half-inhibitory concentration (IC50) is 17 µM.

Turning to `COc1cccc2c1C(=O)c1c(O)c3c(c(O)c1C2=O)C[C@@](O)(C(=O)CO)C[C@@H]3O[C@H]1C[C@H](N)[C@H](O)[C@H](C)O1` [DOXORUBICIN HYDROCHLORIDE], the values for the IC50 in test [4], in test [5] and in test [6] were 0.27 µM, 4.9 µM and 0.23 µM, respectively.

`CC(C)(O)[C@H]1CC[C@]2(C)[C@H]3C[C@@H](O)[C@@H]4[C@@]5(C)CCCC(C)(C)[C@@H]5[C@H](O)C[C@@]4(C)[C@]3(CO)CC[C@@H]12`: the 50% inhibitory concentration (IC50) in test [1] worked out at 9.8 µM; in test [3], 14 µM; in test [4] it was 5.6 µM; in test [5] it was 15 µM; in test [6] it was 47 µM; in test [7], 47 µM. This compound also showed an MIC in test [2] of 52 µM (≈ 24.8 µg/mL).

As to `COc1cc(OC)c2c(O)c3c(c(-c4c5c(c(O)c6c(OC)cc(OC)cc46)CO[C@@H](C)[C@H]5OC(C)=O)c2c1)[C@H](OC(C)=O)[C@H](C)OC3`, the half-maximal inhibitory concentration (IC50) is 10 µM in test [1]; > 75 µM in test [3]; 4.4 µM in test [4]; 22 µM in test [5]; 71 µM in test [6]; > 75 µM in test [7]. For the same compound, the MIC in test [2] was > 75 µM.
